Assay results published in paper PMC10711620 (Frontiers in Pharmacology, 2023).
pIC50: −log10 of the molar value. Read-outs that look alike come from different tables or passages of the source. Blank lines part the entries; values can stand above or below the compound they belong to.

Key:
blood platelets [1] = assay: ADP-induced blood platelet aggregation in platelet-rich plasma; type: cell-based; settings: Homo sapiens; for inhibition at 50 µg/mL: 50 μg/mL, ADP as agonist
Method: (§1) The blood samples under examination contained a normal range of blood platelets, ranging from 2.15 × 10^5 to 3.41 × 10^5 cells/μl. Platelet-rich plasma (PRP) was prepared by differentially centrifuging whole blood according to the method described earlier ([Kolodziejczyk-Czepas et al., 2021]). Subsequently, freshly obtained PRP samples (495 μL) were pre-incubated for 15 min at 37°C with the tested analytes (5 μL). These mixtures were then transferred into Chrono-Log 490 aggregometer cuvettes (Havertown, United States). Platelet aggregation measurements were conducted after stimulating the samples with either ADP (a final concentration of 10 μM) or collagen (a final concentration of 2 μg/mL), following the manufacturer’s instructions.

human plasma [2] = assay: Prothrombin time (PT) in blood plasma; type: biochemical; settings: mean ± SE, n = 12
Method: When determining the hemostatic parameters, stock solutions of the P. spinosa flower extracts (10 mg/mL) were prepared in 30% DMSO. […] The studies mixed 5 µL of the extracts with 495 µL of blood plasma or thrombin solution. Control samples were untreated with the extracts; however, they contained a vehicle for the plant preparations, i.e., DMSO.
(Budapest, Hungary), according to the laboratory protocols delivered by the manufacturer. […] Control samples were prepared using blood plasma untreated with the extracts.

human plasma [3] = assay: Activated partial thromboplastin time (APTT) in blood plasma; type: biochemical; settings: mean ± SE, n = 12
Method: (§2) When determining the hemostatic parameters, stock solutions of the P. spinosa flower extracts (10 mg/mL) were prepared in 30% DMSO. DMSO concentrations in working solutions of the tested extracts (0.1, 0.5 and 5 mg/mL) were 15%. The studies mixed 5 µL of the extracts with 495 µL of blood plasma or thrombin solution. Control samples were untreated with the extracts; however, they contained a vehicle for the plant preparations, i.e., DMSO. The effect of DMSO on the investigated parameters was excluded in preliminary tests. All experiments used argatroban, a reference anticoagulant drug, as a positive control.
Thrombin (TT), prothrombin (PT) and the activated partial thromboplastin time (APTT) were measured in blood plasma using a Kselmed K-3002 Optic coagulometer (Kselmed, Grudziadz, Poland) and reagents purchased from Diagon Kft. (Budapest, Hungary), according to the laboratory protocols delivered by the manufacturer. […] Control samples were prepared using blood plasma untreated with the extracts.

human plasma [4] = assay: Thrombin time (TT) in blood plasma; type: biochemical; settings: mean ± SE, n = 12
Method: as §2
Thrombin (TT), prothrombin (PT) and the activated partial thromboplastin time (APTT) were measured in blood plasma using a Kselmed K-3002 Optic coagulometer (Kselmed, Grudziadz, Poland) and reagents purchased from Diagon Kft. (Budapest, Hungary), according to the laboratory protocols delivered by the manufacturer. Before the assays, the blood plasma samples were pre-incubated with the examined extracts at the final 1–50 μg/mL concentration for 15 min at 37°C. Control samples were prepared using blood plasma untreated with the extracts.

thrombin [5] = biological target: T1, thrombin (Bos taurus, UniProt P00735); set-up: method as in Liu et al. (2010); settings: ref Liu et al. (2010); read-out: IC50, thrombin inhibition in optimized TT assay; cited from earlier work
T1 construct: comprises two polypeptide chains: the light chain, formed by 36 amino acids, and the heavy chain, which has 259 amino acids; purchased Biomed (Lublin, Poland)

thrombin [6] = tested on: thrombin; set-up: method as in Wei et al. (2019); settings: ref Wei et al. (2019); read-out: IC50, inhibition of proteolytic activity of thrombin; cited from earlier work
blood platelets [7] = assay: Collagen-induced blood platelet aggregation in platelet-rich plasma; type: cell-based; settings: Homo sapiens, 5 μg/mL
Method: as §1

thrombin [8] = biological target: T1, thrombin; assay: Amidolytic activity of thrombin, chromogenic substrate S-2238; type: biochemical; settings: read-out: IC50, thrombin-inhibitory efficiency in the amidolytic tests (converted)
Method: When determining the hemostatic parameters, stock solutions of the P. spinosa flower extracts (10 mg/mL) were prepared in 30% DMSO. DMSO concentrations in working solutions of the tested extracts (0.1, 0.5 and 5 mg/mL) were 15%. The studies mixed 5 µL of the extracts with 495 µL of blood plasma or thrombin solution. Control samples were untreated with the extracts; however, they contained a vehicle for the plant preparations, i.e., DMSO.
The thrombin enzyme, purchased from Biomed (Lublin, Poland), was diluted with 0.05 M Tris-buffered saline (TBS), pH 7.4, to the concentration of 0.75 U/mL, and pre-incubated with the examined extracts at the final concentration of 1–50 μg/mL for 10 min, at 37°C. In control samples, 20% DMSO instead of the extracts was used. The measurements were conducted using a kinetic protocol, with absorbance recorded at 415 nm, every 10 s, for 15 min. The reaction mixture comprised 280 µL of thrombin (pre-incubated with the extracts or control/untreated enzyme) and 40 µL of 3 mM chromogenic substrate Chromogenix S-2238 purchased from Instrumentation Laboratory (Bedford, MA, United States of America). Thrombin amidolytic activity was estimated using the BMG Labtech software based on the maximal velocity of the reaction (Vmax). The assays were performed using 96-well microplates and the BMG Labtech SpectroStar Nano spectrophotometer (BMG LABTECH, Offenburg, Germany).

human thrombin = biological target: T2, human thrombin (Homo sapiens, UniProt P00734); assay: Circular dichroism spectra of thrombin; settings: thrombin 15 μg/mL, compounds from 1 μg/mL, 37°C
T2 construct: comprises two polypeptide chains: the light chain, formed by 36 amino acids, and the heavy chain, which has 259 amino acids; purchased Sigma-Aldrich (St. Louis, MO, United States)
Method: Each spectrum was the average of three repetitions. Human thrombin was used at a 15 μg/mL concentration in 10 mM phosphate buffer (pH = 7.4). In determining circular dichroism spectra, stock solutions of P. spinosa flower components (10 mg/mL) in 10% tetrahydrofuran were initially prepared. The final concentration of tetrahydrofuran in the sample was less than 0.05%. The selected extract components in phosphate buffer without thrombin at the concentrations used in the experiments were used as a baseline for thrombin/extract complexes spectra.

Compound: O=c1c(O[C@@H]2O[C@@H](CO)[C@H](O)[C@H]2O)c(-c2ccc(O)c(O)c2)oc2cc(O)cc(O)c12 [AV, Quercetin 3-O-α-L-arabinofuranoside]
inhibition at 50 µg/mL (blood platelets [1]): ≤ 15%

Compound: CC1CNc2c(cccc2S(=O)(=O)N[C@@H](CCCNC(=N)N)C(=O)N2CC[C@@H](C)C[C@@H]2C(=O)O)C1 (stereo partly shown) [Argatroban]
Clothing times PT (human plasma [2]; 0.5 µg/mL): 134.01 ± 1.50 % of the control/untreated human plasma
Clothing times PT (human plasma [2]; 5 µg/mL): 562.65 ± 12.69 % of the control/untreated human plasma
Clothing times PT (human plasma [2]; 10 µg/mL): 821.54 ± 46.95 % of the control/untreated human plasma
Clothing times APTT (human plasma [3]; 0.5 µg/mL): 202.58 ± 2.32 % of the control/untreated human plasma
Clothing times APTT (human plasma [3]; 5 µg/mL): 423.72 ± 7.83 % of the control/untreated human plasma
Clothing times APTT (human plasma [3]; 10 µg/mL): No clot
Clothing times TT (human plasma [4]; 0.5 µg/mL): 974.60 ± 27.50 % of the control/untreated human plasma
Clothing times TT (human plasma [4]; 5 µg/mL): No clot
Clothing times TT (human plasma [4]; 10 µg/mL): No clot

Compound: O=c1c(O[C@@H]2O[C@H](CO)[C@H](O)[C@H](O)[C@H]2O)c(-c2ccc(O)c(O)c2)oc2cc(O)cc(O)c12 [HY, Quercetin 3-O-β-D-galactopyranoside]
pIC50 (thrombin [5]): < 3.00

Compound: O=c1c(O[C@@H]2O[C@H](CO)[C@@H](O)[C@H](O)[C@H]2O)c(-c2ccc(O)c(O)c2)oc2cc(O)cc(O)c12 [IQ, Quercetin 3-O-β-D-glucopyranoside]
pIC50 (thrombin [6]): 4.54

Compound: COc1ccc2c(c1)c(CC(=O)O)c(C)n2C(=O)c1ccc(Cl)cc1 [Indomethacin]
inhibition at 5 µg/mL (blood platelets [1]; 5 μg/mL, ADP): ~23%
inhibition at 5 µg/mL (blood platelets [7]): ~86%

Compound: O=c1c(O[C@@H]2O[C@@H](CO)[C@H](O)[C@H]2O)c(-c2ccc(O)cc2)oc2cc(O)cc(O)c12 [JU, Kaempferol 3-O-α-L-arabinofuranoside]
inhibition at 50 µg/mL (blood platelets [1]): ≤ 15%

IC50 (thrombin [8]): 283 µM
Compound: O=c1c(O)c(-c2ccc(O)cc2)oc2cc(O)cc(O)c12 [KA, Kaempferol]
pIC50 (thrombin [5]): 3.96

IC50 (thrombin [8]): 90.8 µM
Compound: Oc1cc(O)c2c(c1)O[C@@]1(c3ccc(O)c(O)c3)Oc3cc(O)c4c(c3[C@@H]2[C@H]1O)O[C@H](c1ccc(O)c(O)c1)[C@H](O)C4 [PA2, proanthocyanidin A2]
Change of thrombin CD spectrum / secondary structure (human thrombin): most apparent modification of the thrombin α-helix structure

Compound: C[C@@H]1O[C@@H](OC[C@H]2O[C@@H](Oc3c(-c4ccc(O)c(O)c4)oc4cc(O)cc(O)c4c3=O)[C@H](O)[C@@H](O)[C@@H]2O)[C@H](O)[C@H](O)[C@H]1O [RT, Quercetin 3-O-(6″-O-α-L-rhamnopyranosyl)-β-D-glucopyranoside]
pIC50 (thrombin [6]): 4.47
pIC50 (thrombin [5]): < 3.00

Compound: C[C@@H]1O[C@@H](Oc2c(-c3ccc(O)cc3)oc3cc(O)cc(O)c3c2=O)[C@H](OC(=O)/C=C/c2ccc(O)cc2)[C@H](O)[C@H]1OC(=O)/C=C/c1ccc(O)cc1 [kaempferol-3-O-(2″,4″-di-E-p-coumaroyl)-rhamnoside]
pIC50 (thrombin [5]): 4.28

Compound: O=c1c(O[C@@H]2O[C@H](CO)[C@@H](O)[C@H](O)[C@H]2O)c(-c2ccc(O)cc2)oc2cc(O)cc(O)c12 [kaempferol-3-O-glucoside]
pIC50 (thrombin [5]): < 3.00

IC50 (thrombin [8]): 67.8 µM
Compound: O=C(/C=C/c1ccc(O)cc1)O[C@H]1[C@H](Oc2c(-c3ccc(O)cc3)oc3cc(O)cc(O)c3c2=O)O[C@@H](CO)[C@@H]1O [p-cJU, Kaempferol 3-O-(2″-O-E-p-coumaroyl)-α-L-arabinofuranoside]

Compound: kaempferol-3-O-(2″-di-E-p-coumaroyl)-rhamnoside
pIC50 (thrombin [5]): 4.08
